Measurements from patent EP0128338A1, “Silver pseudomonate, compositions containing it and its use in treating pseudomonal infections” (BEECHAM GROUP PLC, priority 1983, dated 1984).

Tested on: Pseudomonas aeruginosa
Assay: Minimum inhibitory concentrations (MICs) against 20 strains of Pseudomonas aeruginosa in Blood Agar Base
Type: cell-based
Protocol: • a) The minimum inhibitory concentrations (MICs) of silver pseudomonate and sodium pseudomonate were determined against 20 strains of Pseudomonas aeruginosa in Blood Agar Base. […] Typical results are presented in Table 2. [formula] [formula]

Silver Pseudomonate A
minimum inhibitory concentrations (MICs) (20 strains of Pseudomonas aeruginosa, Blood Agar Base, comparison in words): more active than sodium pseudomonate against all strains tested
activity against Pseudomonas organisms (general statement in words): active
